Laboratory results reported in patent US10548898B2, “Quinazoline compounds” (Gilead Sciences, Inc., priority 2014, dated 2020).
Read-outs that look alike come from different tables or passages of the source.

Columns and labels:
Assay type in all cases: cell-based
[1] = system: HIV-1 recombinant strain encoding reverse transcriptase mutation K103N; test: Resistance profile against HIV-1 RT mutants in MT-2 cells, K103N; conditions: ratio of mean EC50 mutant/WT virus
Procedure: (§1) Compounds were tested for antiviral activity against a panel of NNRTI resistant viruses. A panel of 8 clonal site-directed mutant viruses representing the major resistance development pathways against rilpivirine (“RPV”), efavirenz (“EFV”), and nevirapine (“NVP”), containing both single and double mutations within HIV-1 reverse transcriptase was employed. Further details and background can be found in Janssen et al. J. Med. Chem, 2005, 48, 1901-1909; Das et al., Proc. Nat. Acad. Sci., 2008, vol., 105, no. 5, 1466-1471; and Kuroda et al., Nature Chemistry, 2013, DOI: 10.1038/NCHEM. 1559. […] HIV-1 recombinant strains encoding reverse transcriptase mutations K103N, Y181C, Y188L, G190A, K103N/Y181C, L1001/Y181C, E138K or E138KIM 184V were constructed by site-directed mutagenesis. Wild-type and mutant viruses were prepared by transfecting infectious proviral HXB2-based cDNA clones into MT-2 cells and harvesting the cell supernatants. MT-2 cells were infected with wild-type and mutant HIV-1 strains at a multiplicity of infection (MOI) of 0.005 by gentle mixing for 3 hours at 37° C. and then added at a density of 16,667 cells per well in 50 μL complete RPMI cell culture media (containing 10% fetal bovine serum (FBS) and 10% penicillin-streptomycin) to 96-well plates containing 50 μL of a 3-fold serial dilution of test compounds in RPMI medium. After 5 days of incubation at 37° C. in a humidified incubator in the presence of 5% CO2. 100 μL of Cell Titer-Glo™ Reagent (Promega Biosciences, Inc., Madison, Wis.) was added to each well and the relative light units (RLU) measured on an Envision plate reader. […] The EC50 value was defined as the compound concentration inducing a 50% decrease in virus replication. Data analysis for the antiviral activity observed in MT-2 cells was performed using XL-Fit™ software (IDBS, Guildford, Surrey, UK) to calculate EC50 from an 8-point dose-response curve using the following equation:
(§2) [formula] where y=virus inhibition, x=drug concentration, M=maximum inhibition, H=minimum inhibition and n=Hill coefficient, EC50 values (mean±standard deviation) were calculated from at least three independent experiments performed in triplicate. The level of resistance was calculated as a ratio of the mean EC50 for each mutant/WT virus. Results are disclosed in FIG. 1 and in Tables 3 and 4 below.

[2] = system: HIV-1 recombinant strain encoding reverse transcriptase mutation Y188L; test: Resistance profile against HIV-1 RT mutants in MT-2 cells, Y188L; conditions: ratio of mean EC50 mutant/WT virus
Procedure: as §1, §2

hERG channels = target: T1, hERG channels (Homo sapiens, UniProt Q12809); test: hERG assay, whole cell recordings in CHO cell line stably expressing hERG channels; conditions: CHO cells, whole cell patch clamp; greater than values indicate the maximum achievable concentration in the assay
T1 construct: host or cells: CHO cell line stably expressing hERG
T1 sequence (Q12809 whole entry): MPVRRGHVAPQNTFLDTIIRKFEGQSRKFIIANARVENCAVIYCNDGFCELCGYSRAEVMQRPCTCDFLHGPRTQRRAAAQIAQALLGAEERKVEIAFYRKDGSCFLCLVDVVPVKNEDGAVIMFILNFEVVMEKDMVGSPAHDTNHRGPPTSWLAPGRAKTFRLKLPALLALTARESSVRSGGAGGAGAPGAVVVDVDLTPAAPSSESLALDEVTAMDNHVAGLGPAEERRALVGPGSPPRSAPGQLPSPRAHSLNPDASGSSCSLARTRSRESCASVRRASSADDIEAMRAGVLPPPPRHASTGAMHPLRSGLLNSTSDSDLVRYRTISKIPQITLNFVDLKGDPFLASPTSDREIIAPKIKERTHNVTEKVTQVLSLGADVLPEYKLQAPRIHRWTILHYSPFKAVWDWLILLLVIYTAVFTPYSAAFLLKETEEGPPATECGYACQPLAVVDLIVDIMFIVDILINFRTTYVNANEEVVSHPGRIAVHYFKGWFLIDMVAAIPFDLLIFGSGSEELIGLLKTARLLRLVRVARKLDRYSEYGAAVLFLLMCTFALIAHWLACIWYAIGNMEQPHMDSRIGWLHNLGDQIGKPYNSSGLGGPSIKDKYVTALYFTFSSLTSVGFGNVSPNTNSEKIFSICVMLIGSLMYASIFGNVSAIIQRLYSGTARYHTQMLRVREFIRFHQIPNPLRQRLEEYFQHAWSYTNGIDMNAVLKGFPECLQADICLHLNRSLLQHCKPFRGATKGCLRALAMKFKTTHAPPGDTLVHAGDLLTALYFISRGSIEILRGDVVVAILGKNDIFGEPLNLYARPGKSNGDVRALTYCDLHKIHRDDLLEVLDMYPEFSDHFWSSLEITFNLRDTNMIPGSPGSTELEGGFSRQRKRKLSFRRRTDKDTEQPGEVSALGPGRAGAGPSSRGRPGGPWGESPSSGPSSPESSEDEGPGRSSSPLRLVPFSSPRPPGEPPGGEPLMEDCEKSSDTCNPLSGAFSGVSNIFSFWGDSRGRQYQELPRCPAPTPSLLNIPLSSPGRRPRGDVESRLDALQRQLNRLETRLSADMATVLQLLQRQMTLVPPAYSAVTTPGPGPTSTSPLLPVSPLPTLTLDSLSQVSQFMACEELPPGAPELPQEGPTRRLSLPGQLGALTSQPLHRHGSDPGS
Procedure: AVIVA's CHO cell line, which stably expresses hERG channels, was used for the study. Cells were cultured in DMEM/F12 containing 10% FBS, 1% penicillin/streptomycin and 500 μg/ml G418. Before testing, cells were harvested using Accumax (Innovative Cell Technologies).
External Solution: 2 mM CaCl2; 2 mM MgCl2; 4 mM KCl; 150 mM NaCl; 10 mM Glucose; 10 mM HEPES; 305-315 mOsm; pH 7.4 (adjusted with 5M NaOH.)
Internal Solution: 140 mM KCl; 10 mM MgCl2; 6 mM EGTA; 5 mM HEPES-Na; 5 mM ATP-Mg; 295-305 mOsm; pH 7.25 (adjusted with 1M KOH).
Whole cell recordings were performed using PX 7000A (Axon Instruments) with AVIVA's SealChip™ technology. Cells were voltage clamped at a holding potential of −80 mV. The hERG current was then activated by a depolarizing step to −50 mV for 300 ms. This first step at −50 mV was used as a baseline for measuring peak amplitude of the tail current. Next, a voltage step to +20 mV was applied for 5 s to activate the channels. Finally, a step back to −50 mV for 5 s removed activation and the deactivating tail current was recorded.
All test articles were prepared from 10 mM DMSO stock solutions. Solutions were mixed by sonication for 20 min, followed by vigorous vortexing. Prior to testing, compounds were diluted to test concentrations in glass vials using External Solution. Dilutions were prepared no longer than 20 min prior to use.
After achieving whole cell configuration, cells were monitored for 90 s to assess stability and then washed with External Solution for 66 s. The voltage protocol was then applied to the cells every 12 s throughout the procedure. Only stable cells with recording parameters above threshold were allowed to enter the drug addition procedure.
External solution containing 0.1% DMSO (vehicle) was applied to the cells to establish a baseline. After allowing the current to stabilize for 3 to 10 min, test articles were applied. Test article solutions were added to cells in 4 separate additions. Cells were kept in test solution until effect of the test article reached steady state, to a maximum of 12 min. Next, 1 μM cisapride (positive control) was added. Finally, washout with External Solution was performed until the recovery current reached steady state.
Data analysis was performed using DataXpress (Axon Instruments), Clampfit (Axon Instruments) and Origin (OriginLab Corporation) software. The greater than values in Table 5 indicate the maximum achievable concentration in the assay (e.g., compounds achieving their solubility limit).

HIV-1 HBX2 (wild type) = test: High throughput cytopathic effect assay in MT-4 cells, wild type HIV-1
Excerpt: (§3) Compounds were screened in a miniaturized, high throughput cytopathic effect assay for activity against HIV-1 HBX2 (wild type) and HIV-1 reverse transcriptase mutants K103N and Y181C. In Tables 1 and 2 below. “w.t.” refers to results of the tested compounds run with the wildtype 1 and “w.t, assay 2” refers results of the tested compounds run with the wildtype on the same day as the testing of the compounds with the mutants. Thus, “w.t, assay 2” was run under the same conditions as the testing of the compounds with the mutants and provides a direct comparison with the results from the testing with the mutants.
(§4) Ten-point serial dilutions of compounds with half-log step size were generated in DMSO. AZT ([…]) was used as the positive control and DMSO as the negative control. The Echo acoustic dispenser was used to deliver 200 nL of serially diluted compound into sterile 384 well tissue culture assay plates. Two million MT-4 cells were incubated with each of the 3 viruses at MOI of 0.0005 in separate 1 mL infection tubes for 1 hour at 37° C. The cells were diluted in cell culture medium (RPMI+10% FBS) to 50.000 cells/mL. The infected cells were added to 384 well assay plates containing serially dilute compounds. Assay plates were incubated for 5 days in a humidified incubator set at 37° C. and 5% CO2. To measure the cytopathic effect of HIV, 40 μL Cell TiterGlo was added to each well and the resulting luminescence signal is read with the Envision plate reader (Perkin Elmer). Data were normalized to positive and negative controls in each plate and expressed as % CPE Protection. EC50 values were defined as the compound concentration that caused a 50% decrease in luminescence signal, and were calculated by non-linear regression using Pipeline Pilot software by applying a four parameter fit equation (Accelrys, San Diego, Calif.).

[3] = system: HIV-1 reverse transcriptase mutant K103N; test: High throughput cytopathic effect assay in MT-4 cells, K103N mutant; conditions: for EC50: Human immunodeficiency virus 1, MT4, 120 h, read-out: MT4 EC50 (nM) against K103N; for FC against mutant K103N: fold change of MT4 EC50 versus w.t. assay 2
Excerpt: as §3, §4

[4] = system: HIV-1 reverse transcriptase mutant Y181C; test: High throughput cytopathic effect assay in MT-4 cells, Y181C mutant; conditions: for EC50: Human immunodeficiency virus 1, MT4, 120 h, read-out: MT4 EC50 (nM) against Y181C; for FC against mutant Y181C: fold change of MT4 EC50 versus w.t. assay 2
Excerpt: as §3, §4

[5] = system: HIV-1 recombinant strain encoding reverse transcriptase mutation Y181C; test: Resistance profile against HIV-1 RT mutants in MT-2 cells, Y181C; conditions: ratio of mean EC50 mutant/WT virus
Procedure: as §1, §2

[6] = system: HIV-1 recombinant strain encoding reverse transcriptase mutation K103N/Y181C; test: Resistance profile against HIV-1 RT mutants in MT-2 cells, K103N/Y181C; conditions: ratio of mean EC50 mutant/WT virus
Procedure: as §1, §2

[7] = system: HIV-1 recombinant strain encoding reverse transcriptase mutation L100I/Y181C; test: Resistance profile against HIV-1 RT mutants in MT-2 cells, L100I/Y181C; conditions: ratio of mean EC50 mutant/WT virus
Procedure: as §1, §2

[8] = system: HIV-1 recombinant strain encoding reverse transcriptase mutation G190A; test: Resistance profile against HIV-1 RT mutants in MT-2 cells, G190A; conditions: ratio of mean EC50 mutant/WT virus
Procedure: as §1, §2

[9] = Human immunodeficiency virus 1, MT4, 120 h, MT-4 cells, 5 days, cytopathic effect, Cell TiterGlo, read-out: MT4 EC50 (nM) against w.t.
[10] = Human immunodeficiency virus 1, MT4, read-out: MT4 EC50 (nM) against w.t. assay 2

## Cc1cc(/C=C/C#N)cc(C)c1-c1cccc2c(N)nc(Nc3ccc(C#N)nc3)nc12 [Compound 9, (E)-5-((4-Amino-8-(4-(2-cyanovinyl)-2,6-dimethylphenyl)quinazolin-2-yl)amino)picolinonitrile]
[1]
  Biology resistance panel-low throughput fold change (FC) K103N: 1.0
[2]
  Biology resistance panel-low throughput fold change (FC) Y188L: 11.4
hERG channels
  hERG: >3 µM
HIV-1 HBX2 (wild type); [9]
  EC50: 3.4 nM
HIV-1 HBX2 (wild type); [10]
  EC50: 3.2 nM
[3]
  EC50: 3.5 nM
  FC against mutant K103N: 1.1
[4]
  EC50: 10.8 nM
  FC against mutant Y181C: 3.4
[5]
  Biology resistance panel-low throughput fold change (FC) Y181C: 5.7
[6]
  Biology resistance panel-low throughput fold change (FC) K103N/Y181C: 14.7
[7]
  Biology resistance panel-low throughput fold change (FC) L100I/Y181C: 4.0

## Cc1cc(/C=C/C#N)cc(C)c1-c1cccc2cnc(Nc3ccc(C#N)cc3)nc12 [Compound 1, (E)-4-((8-(4-(2-Cyanovinyl)-2,6-dimethylphenyl)quinazolin-2-yl)amino)benzonitrile]
[1]
  Biology resistance panel-low throughput fold change (FC) K103N: 1.3
[2]
  Biology resistance panel-low throughput fold change (FC) Y188L: 15.2
HIV-1 HBX2 (wild type); [9]
  EC50: 3 nM
HIV-1 HBX2 (wild type); [10]
  EC50: 6.2 nM
[3]
  EC50: 8.8 nM
  FC against mutant K103N: 1.4
[4]
  EC50: 17.8 nM
  FC against mutant Y181C: 2.9
[5]
  Biology resistance panel-low throughput fold change (FC) Y181C: 5.7
[6]
  Biology resistance panel-low throughput fold change (FC) K103N/Y181C: 14.8
[7]
  Biology resistance panel-low throughput fold change (FC) L100I/Y181C: 6.9
[8]
  Biology resistance panel-low throughput fold change (FC) G190A: 0.6

## Cc1cc(/C=C/C#N)cc(C)c1-c1cccc2c(N)nc(Nc3cnc(C#N)cn3)nc12 [Compound 12, (E)-5-((4-Amino-8-(4-(2-cyanovinyl)-2,6-dimethylphenyl)quinazolin-2-yl)amino)pyrazine-2-carbonitrile]
hERG channels
  hERG: >3 µM
HIV-1 HBX2 (wild type); Human immunodeficiency virus 1, MT4, 120 h, read-out: MT4 EC50 (nM) against w.t.
  EC50: 1.8 nM
HIV-1 HBX2 (wild type); [10]
  EC50: 1.8 nM
[3]
  EC50: 1.7 nM
  FC against mutant K103N: 0.9
[4]
  EC50: 12.5 nM
  FC against mutant Y181C: 6.9

## Cc1cc(/C=C/C#N)cc(C)c1-c1cccc2c(N)nc(Nc3ccc(C#N)nn3)nc12 [Compound 11, (E)-6-((4-Amino-8-(4-(2-cyanovinyl)-2,6-dimethylphenyl)quinazolin-2-yl)amino)pyridazine-3-carbonitrile]
[1]
  Biology resistance panel-low throughput fold change (FC) K103N: 2.1
[2]
  Biology resistance panel-low throughput fold change (FC) Y188L: 161.0
hERG channels
  hERG: >3 µM
HIV-1 HBX2 (wild type); [9]
  EC50: 4.7 nM
HIV-1 HBX2 (wild type); [10]
  EC50: 4.2 nM
[3]
  EC50: 5.2 nM
  FC against mutant K103N: 1.2
[4]
  EC50: 126 nM
  FC against mutant Y181C: 29.8
[5]
  Biology resistance panel-low throughput fold change (FC) Y181C: 154.0
[6]
  Biology resistance panel-low throughput fold change (FC) K103N/Y181C: 157.0
[7]
  Biology resistance panel-low throughput fold change (FC) L100I/Y181C: 85.0

## Cc1ccnc2c1NC(=O)c1cccnc1N2C1CC1 [Nevirapine, reference compound]
[1]
  Biology resistance panel-low throughput fold change (FC) K103N: 87.0
[2]
  Biology resistance panel-low throughput fold change (FC) Y188L: >229
HIV-1 HBX2 (wild type); [9]
  EC50: 65 nM
[5]
  Biology resistance panel-low throughput fold change (FC) Y181C: >229
[7]
  Biology resistance panel-low throughput fold change (FC) L100I/Y181C: >229
[8]
  Biology resistance panel-low throughput fold change (FC) G190A: 183.0

## Cc1cc(/C=C/C#N)cc(C)c1-c1cccc2cnc(Nc3ccc(C#N)cn3)nc12 [Compound 13, (E)-6-((8-(4-(2-Cyanovinyl)-2,6-dimethylphenyl)quinazolin-2-yl)amino)nicotinonitrile]
hERG channels
  hERG: 1.3 µM
HIV-1 HBX2 (wild type); [9]
  EC50: 3.2 nM
HIV-1 HBX2 (wild type); [10]
  EC50: 4.3 nM
[3]
  EC50: 5.9 nM
  FC against mutant K103N: 1.4
[4]
  EC50: 27.4 nM
  FC against mutant Y181C: 6.4

## Cc1cc(/C=C/C#N)cc(C)c1-c1cccc2c(N)nc(Nc3ccc(C#N)cn3)nc12 [Compound 10, (E)-6-((4-Amino-8-(4-(2-cyanovinyl)-2,6-dimethylphenyl)quinazolin-2-yl)amino)nicotinonitrile]
[1]
  Biology resistance panel-low throughput fold change (FC) K103N: 0.9
[2]
  Biology resistance panel-low throughput fold change (FC) Y188L: 53.6
hERG channels
  hERG: >3 µM
HIV-1 HBX2 (wild type); [9]
  EC50: 2.8 nM
HIV-1 HBX2 (wild type); [10]
  EC50: 3 nM
[3]
  EC50: 2.9 nM
  FC against mutant K103N: 1.0
[4]
  EC50: 29.3 nM
  FC against mutant Y181C: 9.8
[5]
  Biology resistance panel-low throughput fold change (FC) Y181C: 11.9
[6]
  Biology resistance panel-low throughput fold change (FC) K103N/Y181C: 19.9
[7]
  Biology resistance panel-low throughput fold change (FC) L100I/Y181C: 3.8
